Assay [1] has as its target T1, CYP17A1 (Homo sapiens, UniProt P05093).
T1 construct: recombinant human CYP17A1, purified
T1 sequence (P05093 1-508): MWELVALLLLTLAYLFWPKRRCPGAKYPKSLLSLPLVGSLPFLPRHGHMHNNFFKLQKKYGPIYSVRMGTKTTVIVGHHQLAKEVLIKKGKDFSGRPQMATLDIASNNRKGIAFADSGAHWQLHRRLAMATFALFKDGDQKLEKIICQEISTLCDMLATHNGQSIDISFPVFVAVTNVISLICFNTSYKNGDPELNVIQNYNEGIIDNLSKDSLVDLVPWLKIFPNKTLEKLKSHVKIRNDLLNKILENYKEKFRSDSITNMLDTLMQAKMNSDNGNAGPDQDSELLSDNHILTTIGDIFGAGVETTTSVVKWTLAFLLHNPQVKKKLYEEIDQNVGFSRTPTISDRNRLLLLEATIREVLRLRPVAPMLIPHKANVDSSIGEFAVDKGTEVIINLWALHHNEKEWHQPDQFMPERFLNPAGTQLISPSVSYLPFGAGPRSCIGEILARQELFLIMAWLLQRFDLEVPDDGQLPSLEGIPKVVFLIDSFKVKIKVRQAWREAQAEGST
Nature of the assay: UV-Vis spectrophotometric titration (type I spectral response). Type of assay: binding.

For a further assay, the system named is T2, AR.
T2 construct: endogenous AR in ARE14 reporter cells (22Rv1-derived)
Kind of assay: cells. More on the design: species or system ARE14; ARE-driven firefly luciferase reporter; AR transcriptional activity normalised to 1 nM R1881. Particulars: 24 h. The protocol: ARE14 cells were seeded (40,000 cells/well) into the Nunc™ MicroWell™ 96-well optical plate (Thermo Fisher Scientific, Waltham, MA, USA) on the second day. The cultivation medium was discarded, and the cells were washed with PBS. Analyzed compounds were dissolved in medium supplemented with CSS (agonist mode) or CSS with 1 nM R1881 (antagonist mode) and added to cells, including CSS and 1 nM R1881 controls. Upon 24 h of incubation, cells were washed with PBS and lysed for 10 min in a lysis buffer (10 mM Tris pH = 7.4, 2 mM DCTA, 1% nonidet P40, 2 mM DTT) at 37 °C. Next, a reaction buffer (20 mM tricine pH = 7.8, 1.07 mM MgSO4^.7H2O, 5 mM ATP, 9.4 mM luciferin) was added, and the luminescence was measured using a Tecan M200 Pro microplate reader ([…]). Based on the structural similarity of novel derivatives with galeterone and other published compounds (abiraterone, 3, and [6]), we tested the effect of our compounds towards the AR-transcriptional activity. Compounds were evaluated using an AR-dependent reporter cell line (ARE14) with a firefly-luciferase gene under the control of an androgen response element.

The next assay has as its system LNCaP. Kind of assay: cells. On the set-up: resazurin (Alamar blue) viability assay, resorufin fluorescence, GI50 from dose-response. Conditions: Homo sapiens, 72 h, read-out: Viability after 72 h (GI50) LNCaP. The protocol:
(§1) Cells were seeded into the 96-well tissue culture plates and, on the other day, compounds were added in different concentrations in duplicate for 72 h. Upon treatment, the resazurin solution (Sigma Aldrich, St. Louis, MI, USA) was added for 4 h, and then the fluorescence of resorufin was measured at 544 nm/590 nm (excitation/emission) using a Fluoroskan Ascent microplate reader (Labsystems, Budapest, Hungary). The GI50 value was calculated from the dose–response curves that resulted from the measurements using GraphPad Prism 5. Antiproliferative properties of all novel steroids were tested in two AR-positive prostate cancer cell lines (LNCaP and LAPC-4) and one AR-negative cell line (DU145) using the Alamar-blue assay after 72 h treatment.

The subject of a further assay is DU145. Kind of assay: cells. Particulars: Homo sapiens, DU-145, 72 h; read-out: Viability after 72 h (GI50) DU145. More on the design: resazurin (Alamar blue) viability assay, resorufin fluorescence, GI50 from dose-response. The procedure: as §1
The next assay relates to LAPC-4. Kind of assay: cells. More on the design: resazurin (Alamar blue) viability assay, resorufin fluorescence, GI50 from dose-response. Particulars: Homo sapiens, LAPC4, 72 h; read-out: Viability after 72 h (GI50) LAPC-4. The procedure: as §1
In assay [2] the target is T3, CYP17A1 (Homo sapiens, UniProt P05093).
T3 construct: recombinant human CYP17A1, reconstituted system; with NADPH-cytochrome P450 reductase (rat), cytochrome b5 (human)
Kind of assay: reconstituted […],20-lyase assay, HPLC, […] compound. Particulars: read-out: 17,20-Lyase Activity / Inhibition, %. The class given is biochemical.
T3 sequence (P00388 2-678 partner, one chain of several): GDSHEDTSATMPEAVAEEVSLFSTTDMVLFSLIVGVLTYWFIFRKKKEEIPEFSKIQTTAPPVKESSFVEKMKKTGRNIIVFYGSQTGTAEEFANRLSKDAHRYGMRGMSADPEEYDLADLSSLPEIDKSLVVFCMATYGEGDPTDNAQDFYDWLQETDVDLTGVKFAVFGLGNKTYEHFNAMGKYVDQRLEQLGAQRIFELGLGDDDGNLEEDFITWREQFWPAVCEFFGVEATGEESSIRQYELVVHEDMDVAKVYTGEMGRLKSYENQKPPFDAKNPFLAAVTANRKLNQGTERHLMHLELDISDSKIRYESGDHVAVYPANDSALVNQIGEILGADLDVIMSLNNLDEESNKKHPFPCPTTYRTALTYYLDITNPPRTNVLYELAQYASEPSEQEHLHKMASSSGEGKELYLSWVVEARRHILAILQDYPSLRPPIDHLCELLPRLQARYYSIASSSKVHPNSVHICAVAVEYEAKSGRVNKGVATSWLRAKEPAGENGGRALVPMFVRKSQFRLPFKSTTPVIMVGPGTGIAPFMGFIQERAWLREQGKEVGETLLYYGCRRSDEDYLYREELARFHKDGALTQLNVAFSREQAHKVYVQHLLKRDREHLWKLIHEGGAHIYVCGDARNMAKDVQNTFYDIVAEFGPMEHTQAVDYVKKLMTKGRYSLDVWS
T3 sequence (P00167 2-134 partner, one chain of several): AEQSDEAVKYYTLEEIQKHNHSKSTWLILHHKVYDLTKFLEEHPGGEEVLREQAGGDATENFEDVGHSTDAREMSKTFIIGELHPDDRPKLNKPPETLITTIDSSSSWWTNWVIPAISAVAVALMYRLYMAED

Where [3] appears, read: compound alone, vs 1 nM R1881 = 100%, read-out: AGONIST MODE 2 μM.
[4] abbreviates: compound alone, vs 1 nM R1881 = 100%, read-out: AGONIST MODE 10 μM.
[5] abbreviates: compound alone, vs 1 nM R1881 = 100%, read-out: AGONIST MODE 50 μM.
The mark [6] stands for this setting: with 1 nM R1881, read-out: % of control remaining.

Structures are written as SMILES. Like-named read-outs stand apart in the source and are kept apart here.

Regarding `C[C@]12CC[C@H]3[C@@H](CC=C4C[C@@H](O)CC[C@@]43C)[C@@H]1CC[C@@H]2Cc1ccno1` [24a, (17R)-(Isoxazol-5-ylmethyl)-androst-5-en-3β-ol], on CYP17A1 [1] (read-out: Kd), the Kd is 0.13 ± 0.02 µM.

In the case of `CCCCc1cc(C[C@H]2CC[C@H]3[C@@H]4CC=C5C[C@@H](O)CC[C@]5(C)[C@H]4CC[C@]23C)on1` [24d, 17β-((3-Butylisoxazol-5-yl)methyl)-androst-5-en-3β-ol], the activity at 2 µM with AR (setting [3]) came out at 17.8 ± 0.1%; in the assay with AR (setting [6]), 109 ± 12.1%. In addition, the activity at 10 µM in the assay with AR (setting [4]) was determined as 21.1 ± 1.6%; in the assay on AR (setting [6]), 113 ± 21.1%. For the same compound, the activity at 50 µM with AR (setting [5]) was 18.6 ± 3.6%; in the assay on AR (setting [6]), 104 ± 42.6%. In addition, at CYP17A1 [1] (read-out: Kd), the equilibrium dissociation constant (Kd) is 1.5 ± 0.21 µM. Also, the 50% growth inhibitory concentration (GI50) with LNCaP, with DU145 and with LAPC-4 was more than 50 µM in each case.

For `C[C@]12CC[C@H]3[C@@H](CC=C4C[C@@H](O)CC[C@@]43C)[C@@H]1CC[C@@H]2Cc1cc(-c2ccccc2)no1` [24e, (17R)-17-((3-Phenylisoxazol-5-yl)methyl)-androst-5-en-3β-ol], the activity at 2 µM worked out at 14.7 ± 0.5% in the assay with AR (setting [3]) and 101 ± 9.5% in the assay on AR (setting [6]). For the same compound, the activity at 10 µM came out at 14.2 ± 1.4% in the assay with AR (setting [4]) and 101 ± 13.6% with AR (setting [6]). Moreover, the activity at 50 µM in the assay with AR (setting [5]) is 12.8 ± 0.2%; in the assay with AR (setting [6]), 125 ± 27.4%. In addition, the concentration for 50% growth inhibition (GI50) with LNCaP, in the assay on DU145 and in the assay on LAPC-4 was more than 50 µM each time.

On to `CC(C)(O)c1cc(C[C@H]2CC[C@H]3[C@@H]4CC=C5C[C@@H](O)CC[C@]5(C)[C@H]4CC[C@]23C)on1` [24j, (17R)-17-((3-(2-Hydroxypropan-2-yl)isoxazol-5-yl)methyl)-androst-5-en-3β-ol], for which the results for the activity at 2 µM in the assay on AR (setting [3]) and in the assay on AR (setting [6]) were 14.4 ± 2.8% and 100 ± 13.5%, respectively. The activity at 10 µM is 12.6 ± 0.1% in the assay with AR (setting [4]) and 84.8 ± 17.4% with AR (setting [6]). The activity at 50 µM is 6.1 ± 1.5% in the assay with AR (setting [5]) and 21.6 ± 7.8% with AR (setting [6]). For the same compound, the dissociation constant Kd at CYP17A1 [1] (read-out: Kd) amounted to 1.9 ± 0.23 µM. Moreover, the GI50 in the assay with LNCaP was 25.8 ± 0.6 µM; in the assay on DU145, more than 50 µM; in the assay on LAPC-4 it was 18.2 ± 1.2 µM.

Take `C[C@]12CC[C@H]3[C@@H](CC=C4C[C@@H](O)CC[C@@]43C)[C@@H]1CC[C@@H]2Cc1ccon1` [41a, (17R)-17-(Isoxazol-3-ylmethyl)-androst-5-en-3β-ol]: the activity at 2 µM in the assay with AR (setting [3]) was found to be 14.5 ± 1.5%; with AR (setting [6]), 98.2 ± 17.5%. In addition, the figures for the activity at 10 µM in the assay with AR (setting [4]) and with AR (setting [6]) were 14.7 ± 0.1% and 73.7 ± 14.9%, respectively. Also, the values for the activity at 50 µM in the assay on AR (setting [5]) and with AR (setting [6]) were 12.1 ± 1.3% and 50.8 ± 18.8%, respectively. For the same compound, at CYP17A1 [2], the inhibition at 50 µM was 42.3%. The 50% growth inhibitory concentration (GI50) in the assay with LNCaP, with DU145 and in the assay with LAPC-4 was more than 50 µM each time.

In the case of `C[C@]12CC[C@H]3[C@@H](CC=C4C[C@@H](O)CC[C@@]43C)[C@@H]1CC[C@@H]2Cc1cc(-c2cccnc2)on1` [41f, (17R)-17-((5-(Pyridin-3-yl)isoxazol-3-yl)methyl)-androst-5-en-3β-ol], the inhibition at 50 µM on CYP17A1 [2] stood at 41.1%.

Consider `C[C@]12CC[C@H](O)CC1=CC[C@@H]1[C@@H]2CC[C@]2(C)C(n3cnc4ccccc43)=CC[C@@H]12` [Gal, galeterone], for which the activity at 2 µM with AR (setting [3]) is 15.4 ± 0.4%; in the assay on AR (setting [6]), 65.2 ± 6.1%. Further, the activity at 10 µM in the assay on AR (setting [4]) is 10.8 ± 3.1%; with AR (setting [6]), 35.1 ± 3.3%. In addition, the activity at 50 µM in the assay with AR (setting [5]) was 2.4 ± 1.1%; with AR (setting [6]), 3 ± 1.8%. In addition, the GI50 with LNCaP is 46.8 ± 0.1 µM; in the assay on DU145, 47.6 ± 0.2 µM; in the assay on LAPC-4, 28.6 ± 0.6 µM.

In turn, `CC(=O)[C@H]1CC[C@H]2[C@@H]3CCC4=CC(=O)CC[C@]4(C)[C@H]3CC[C@]12C` [Progesterone] displayed a dissociation constant Kd on CYP17A1 [1] of less than 1 µM.

With `C[C@]12CC[C@H]3[C@@H](CC=C4C[C@@H](O)CC[C@@]43C)[C@@H]1CC[C@@H]2CC(=O)/C(OC(=O)n1ccnc1)=C(\N)C1CC1` [compound 27, (E)-1-Amino-4-((17R)-3β-hydroxy-androst-5-en-17-yl)-1-cyclopropyl-3-oxobut-1-en-2-yl 1H-imidazole-1-carboxylate], the results for the activity at 2 µM with AR (setting [3]) and in the assay on AR (setting [6]) were 17.4 ± 0.5% and 89.7 ± 9.9%, respectively. Further, the activity at 10 µM came to 20.9 ± 2.9% with AR (setting [4]) and 62 ± 14.8% in the assay on AR (setting [6]). The activity at 50 µM stood at 20.4 ± 4.2% in the assay on AR (setting [5]) and 63.5 ± 8% in the assay on AR (setting [6]). Moreover, the GI50 in the assay on LNCaP, with DU145 and in the assay with LAPC-4 was more than 50 µM in each case.

Take `C[C@]12CC[C@H]3[C@@H](CC=C4C[C@@H](O)CC[C@@]43C)[C@@H]1CC[C@@H]2Cc1cc(CO)no1` [compound 32, (17R)-17-((3-(Hydroxymethyl)isoxazol-5-yl)methyl)-androst-5-en-3β-ol]: the activity at 2 µM with AR (setting [3]) was 14 ± 1.1%; in the assay on AR (setting [6]), 99.7 ± 17.4%. Also, the activity at 10 µM was found to be 12.1 ± 2.7% in the assay with AR (setting [4]) and 87.8 ± 20.9% with AR (setting [6]). The figures for the activity at 50 µM with AR (setting [5]) and in the assay on AR (setting [6]) were 14.6 ± 0.5% and 31.1 ± 13.3%, respectively. The Kd on CYP17A1 [1] (read-out: Kd) was 13.4 ± 2.38 µM. The results for the 50% growth inhibitory concentration (GI50) with LNCaP, in the assay on DU145 and in the assay with LAPC-4 were 19.5 ± 0.1 µM, more than 50 µM and 18.9 ± 7.2 µM, respectively.

Turning to `C[C@]12CC[C@H]3[C@@H](CC=C4C[C@@H](O)CC[C@@]43C)[C@@H]1CC[C@@H]2Cc1cc(CCl)no1` [compound 38, (17R)-17-((3-(Chloromethyl)isoxazol-5-yl)methyl)-androst-5-en-3β-ol], the activity at 2 µM in the assay with AR (setting [3]) amounted to 14.6 ± 1%; in the assay on AR (setting [6]), 96.1 ± 11.2%. Further, the figures for the activity at 10 µM in the assay with AR (setting [4]) and with AR (setting [6]) were 13 ± 0.4% and 92.6 ± 20.5%, respectively. Also, the figures for the activity at 50 µM in the assay with AR (setting [5]) and in the assay on AR (setting [6]) were 7.3 ± 1.1% and 78.2 ± 24.9%, respectively. For the same compound, the 50% growth inhibitory concentration (GI50) in the assay on LNCaP, in the assay on DU145 and with LAPC-4 was more than 50 µM each time.

The term Kd denotes the equilibrium constant for the complex coming apart. For orientation: GI50 means the concentration giving 50% growth inhibition.

Values taken from PMC9656436, “Synthesis and Biological Evaluation of New Isoxazolyl Steroids as Anti-Prostate Cancer Agents” (International Journal of Molecular Sciences, 2022).
